Data: patent US20020146823A1, “Method for promoting hematopoietic and mesenchymal cell proliferation and differentiation” (The University of Southern California, priority 1997, published 2002)

What was measured:
[1] = molecular target: T1, AT2 receptor (Homo sapiens, UniProt P50052); details: cited from earlier work
T1 sequence (P50052 1-363): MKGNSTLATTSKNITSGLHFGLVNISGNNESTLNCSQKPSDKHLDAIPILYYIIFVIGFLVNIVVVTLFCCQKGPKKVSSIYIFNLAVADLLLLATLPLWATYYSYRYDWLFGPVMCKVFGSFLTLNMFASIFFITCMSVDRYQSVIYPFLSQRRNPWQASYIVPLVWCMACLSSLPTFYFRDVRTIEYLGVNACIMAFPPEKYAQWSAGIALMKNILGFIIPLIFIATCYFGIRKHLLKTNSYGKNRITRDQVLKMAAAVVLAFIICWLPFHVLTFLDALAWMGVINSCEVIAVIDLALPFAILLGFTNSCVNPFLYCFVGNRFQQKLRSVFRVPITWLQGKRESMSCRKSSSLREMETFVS

[2] = system: human PBMC; experiment: Proliferative response of human lymphocytes (3H-thymidine incorporation); type: cell-based; details: absence of mitogen
Method: Upon stimulation of lymphocytes with mitogen or antigen, these cells undergo blastogenesis and proliferation. In the absence of such stimuli, proliferation is seldom observed. One method to measure cellular proliferation in a short term assay is via measurement of the amount of the nucleotide thymidine that is incorporated into newly synthesized DNA. The effect of All on the proliferation of human PBMC in the presence and absence of pokeweed mitogen (“PWM”) was assessed.
Human PBMC were collected from normal volunteers and isolated via Ficoll Hypaque (Sigma Chemical, St. Louis) density centrifugation. After isolation of the buffy coat, the cells were washed 3× to remove the Ficoll Hypaque, counted in trypan blue (0.01%) and resuspended at a concentration of 1×10^6 cells/ml in RPMI 1640 containing 10% fetal calf serum and antibiotics. A 100 μl aliquot of cells was added to each well. Thereafter, various concentrations (0.1 to 1000 μg/ml final concentration) of AII in RPMI 1640 containing 10% FCS and antibiotics were added to various wells in triplicate. To the appropriate wells, PWM (20 μg/ml final concentration) was added. These plates were incubated at 37° C. in 5% CO2 for 48 hours. […] These filters were dried, placed in scintillation fluid and the amount of thymidine incorporated was determined by beta counting.

[3] = system: murine bone marrow stem cells; details: cited from earlier work
[4] = system: human peripheral blood mononuclear cells (PBMC); experiment: Respiratory burst (hydrogen peroxide generation) in human PBMC; type: cell-based; details: alone and in response to PMA; 4 hours exposure; five donors
Method: (§1) The respiratory burst of leukocytes (macrophages and polymorphonuclear neutrophils) is one component of the mediator system used to kill bacteria. As with phagocytosis, the level of this respiratory burst activity in resident macrophages is low. […] Studies were conducted to assess the effect of in vitro exposure of murine or rat peritoneal macrophages and human peripheral blood mononuclear cells (PBMC) to various concentrations of AII on the capacity to generate hydrogen peroxide via the respiratory burst system. For the human studies, five different donors were examined.
(§2) The murine or rat peritoneal cells were harvested by lavage with 5-15 ml of cold PBS with 0.5% bovine serum albumin. The human PBMC were harvested by venipuncture from normal human volunteers and isolated from peripheral blood by Ficoll Hypaque density centrifugation. After isolation, the cells were resuspended at 1×10^6 cells/ml and placed at 100 μl per well into 96 well plates. The cells were incubated with various concentrations of AII or AII analogues and fragments for 4 hours at 37° C. The cells were then preloaded with a fluorescent probe for hydrogen peroxide, 2,7 dichlorofluorescein acetate, which is nonfluorescent in the absence of hydrogen peroxide. Fifteen minutes later, 10 ng/ml of phorbol myristate acetate (+PMA) or PBS (−PMA) was added to stimulate the production of hydrogen peroxide. One hour after stimulation the level of fluorescence produced was measured on a Cytofluor 2350 multiwell fluorometer.

[5] = system: rat peritoneal macrophages; experiment: Respiratory burst (hydrogen peroxide generation) in rat peritoneal macrophages; type: cell-based; details: alone and in response to PMA; 4 hours exposure
Method: as §1
as §2, with “Fifteen minutes later, 10 ng/ml of phorbol myristate acetate (+PMA) or PBS (−PMA) was added to stimulate the production of hydrogen peroxide.” left out

[6] = system: Rat Peritoneal Macrophages; experiment: Phagocytic capability of rat peritoneal macrophages (opsonized yeast ingestion); type: cell-based, Sprague Dawley rats
Method: Resident peritoneal macrophages have very little phagocytic activity. Exposure of macrophages to inflammatory or activating agents will increase this macrophage function. Resident peritoneal macrophages were harvested from C57B1/6 mice or Sprague Dawley rats and resuspended at a concentration of 1×10^6 cells/ml in phosphate buffered saline (PBS). Five separate 0.5 ml cell aliquots were placed on a glass coverslip in a 35 mm petri dish. Prior to incubation, either 0.5 ml of PBS, AII, or AII analogues or fragments at between 1-1000 ug/ml final concentration was added to the individual cover slips. The dishes containing the cover slips were then incubated at 37° C. for 4 hours, after which the cover slips were washed 3 to 6 times with PBS. Opsonized yeast particles (Sigma Chemical Co.) (yeast opsonized with adult serum from the same species as that under study) were added to the cover slips and incubated for 2 hours, after which the cover slips were again washed with PBS and inverted onto a glass slide. The number of macrophages that ingested yeast and the number of yeast per macrophage ingested was then determined microscopically. At least 100 macrophages per coverslip were counted. The data from this study are summarized in Tables 3 and 4 and FIGS. 1 and 2.

Asp-Arg-Val-Tyr-Ile-His-Pro-Phe (DRVYIHPF; printed: Asp-Arg-Val-Tyr-Ile-His-Pro-Phe) [AII, octapeptide present in humans and other species; known pressor agent, commercially available]
affinity for AT2 relative to AT1 [1]: 100 times
thymidine incorporation [2]: no increase
formation of colonies ([3]; absence of exogenous colony stimulating factors): increases the formation of colonies
number and size of colonies formed ([3]; lineage-negative bone marrow cells expressing Sca1): increased the number and size of colonies formed only in the presence of exogenous colony stimulating factors
ability of leukocytes to generate hydrogen peroxide [4]: increased the ability of leukocytes to generate hydrogen peroxide both alone and in response to stimulation with PMA
ability of leukocytes to generate hydrogen peroxide [5]: increased the ability of leukocytes to generate hydrogen peroxide both alone and in response to stimulation with PMA
#/Cell ([6]; peptide 100 μg/ml): 1.14
% w/Yeast ([6]; peptide 100 μg/ml): 35.7%
Number of Macrophages with Yeast (Yeast Number) 0 ([6]; peptide 100 μg/ml): 90
Number of Macrophages with Yeast (Yeast Number) 1-3 ([6]; peptide 100 μg/ml): 30
Number of Macrophages with Yeast (Yeast Number) ≧7 ([6]; peptide 100 μg/ml): 0
#/Cell ([6]; peptide 1000 μg/ml): 2.86
% w/Yeast ([6]; peptide 1000 μg/ml): 70.4%
Number of Macrophages with Yeast (Yeast Number) 0 ([6]; peptide 1000 μg/ml): 50
Number of Macrophages with Yeast (Yeast Number) 1-3 ([6]; peptide 1000 μg/ml): 54
Number of Macrophages with Yeast (Yeast Number) 4-6 ([6]; peptide 1000 μg/ml): 40
Number of Macrophages with Yeast (Yeast Number) ≧7 ([6]; peptide 1000 μg/ml): 25
